Patent publication US20210395689A1, “METHOD FOR PRODUCING INSULIN-PRODUCING CELLS” (KATAOKA CORPORATION, priority 2018, published 2021)

Experiments:
human fibroblasts = test: Direct induction from human fibroblasts into insulin-producing cells, amount of insulin secreted; type: cell-based; conditions: culturing for 14 days in differentiation induction medium; 3 μM CHIR99021, 7.5 μM forskolin, 1.5 μM BRD7389, 5 μM LY294002; BI-D1870 5 μM or 10 μM; FIGS. 1 to 4
From the text: The insulin-producing cell produced by the present invention process can be detected, identified, and isolated using, for example, a morphological change of a cell, a characteristic property of an insulin-producing cell, or a specific marker (e.g., an anti-insulin antibody). Moreover, the secretory capacity of the obtained insulin-producing cell can also be evaluated by quantifying the amount of secreted insulin using sandwich ELISA.
The human fibroblasts used as the material were purchased from DS Pharma Biomedical Co., Ltd. The fibroblasts are derived from human skin.
Human fibroblasts were seeded in 35-mm dishes coated with gelatin (Cat #: 190-15805, manufactured by Wako Pure Chemical Industries, Ltd.) at 5×10^4 cells/dish, and cultured in DMEM medium (manufactured by Gibco) supplemented with 10% fetal bovine serum (FBS), 100 U/mL penicillin, and 100 μg/mL streptomycin until confluent under conditions of 37° C. and 5% CO2. Note that DMEM refers to Dulbecco's Modified Eagle's Medium.
The medium of dishes of the human fibroblasts described above was replaced with the differentiation induction medium described below. […]

pancreatic α-cells = conditions: reported in Non-Patent Document 7; cited from earlier work

In the case of O=C1c2ccccc2-c2c(NCCc3ccccc3)c(=O)[nH]c3cccc1c23 [BRD7389], the “insulin secretion by insulin-producing cells directly differentiated from human fibroblasts” value (human fibroblasts) is given as “a considerable amount of insulin secretion was observed” and the “expression of insulin genes in pancreatic α-cells” value (pancreatic α-cells) is given as “capacity of activating the expression of insulin genes”.
